Measurements reported in PubChem BioAssay AID328 (DTP/NCI, 2004).
“And” between values parts separate entries of the source, which are not always exact repeats. Equal entries are not always repeated. Inconclusive results and toxic doses are left out.

Test system: BDF1 mice, P388 leukemia ip, median survival T/C
Test: NCI In Vivo Anticancer Drug Screen. Data for tumor model P388 Leukemia (intraperitoneal) in B6D2F1 (BDF1) mice
Settings: endpoint: median survival time, higher = longer survival
Procedure, shortened: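 Survival ratio, drug arm over vehicle arm, in mice with a transplanted tumour.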

[1] = dose: 100.0 mg/kg/injection, schedule: Q04DX003 (ip), vehicle: Klucel (hydroxypropylcellulose) (HPC)
[2] = dose: 200.0 mg/kg/injection, schedule: Q04DX003 (ip), vehicle: Klucel (hydroxypropylcellulose) (HPC)
[3] = dose: 50.0 mg/kg/injection, schedule: Q04DX003 (ip), vehicle: water
[4] = dose: 200.0 mg/kg/injection, schedule: Q04DX003 (ip), vehicle: water

CC(=O)Oc1ccc(/C=N/NC(N)=S)nc1
T/C (dose: 0.18 mg/kg/injection, schedule: Q01DX009 (ip), vehicle: saline with Tween-80): 123 % of control
T/C (dose: 0.27 mg/kg/injection, schedule: Q01DX009 (ip), vehicle: saline with Tween-80): 116 % of control
T/C (dose: 0.4 mg/kg/injection, schedule: Q01DX009 (ip), vehicle: saline with Tween-80): 176 % of control
T/C (dose: 0.6 mg/kg/injection, schedule: Q01DX009 (ip), vehicle: saline with Tween-80): 123 % of control
T/C (dose: 44.0 mg/kg/injection, schedule: Q01DX009 (ip), vehicle: saline with Tween-80): 177 % of control
T/C (dose: 66.0 mg/kg/injection, schedule: Q01DX009 (ip), vehicle: saline with Tween-80): 200 % of control
T/C (dose: 100.0 mg/kg/injection, schedule: Q01DX009 (ip), vehicle: saline with Tween-80): 177 % of control and 220 % of control
T/C (dose: 100.0 mg/kg/injection, schedule: Q04DX003 (ip), vehicle: saline with Tween-80): 107 % of control
T/C (dose: 150.0 mg/kg/injection, schedule: Q01DX009 (ip), vehicle: saline with Tween-80): 90 % of control
T/C (dose: 200.0 mg/kg/injection, schedule: Q01DX009 (ip), vehicle: saline with Tween-80): 105 % of control
T/C (dose: 200.0 mg/kg/injection, schedule: Q04DX003 (ip), vehicle: saline with Tween-80): 111 % of control
T/C (dose: 400.0 mg/kg/injection, schedule: Q04DX003 (ip), vehicle: saline with Tween-80): 115 % of control

O=Cc1ccc(N(c2ccccc2)c2ccccc2)cc1
T/C [1]: 111 % of control
T/C [2]: 111 % of control
T/C (dose: 400.0 mg/kg/injection, schedule: Q04DX003 (ip), vehicle: Klucel (hydroxypropylcellulose) (HPC)): 94 % of control

C[n+]1c(-c2cc(Cl)cc(Cl)c2)c2cc([N+](=O)[O-])ccc2c2ccccc21
T/C [3]: 120 % of control
T/C [4]: 122 % of control
T/C (dose: 400.0 mg/kg/injection, schedule: Q04DX003 (ip), vehicle: water): 110 % of control

COC(=O)[C@@]12OC[C@]34[C@H]([C@@H](O)[C@@H]1O)[C@@]1(C)CC(=O)C(OC(=O)CC(=O)OC5=C(C)[C@@H]6C[C@H]7OC(=O)[C@H](OC(=O)C=C(C)C)[C@H]8[C@]9(C(=O)OC)OC[C@]78[C@H]([C@@H](O)[C@@H]9O)[C@@]6(C)CC5=O)=C(C)[C@@H]1C[C@H]3OC(=O)[C@H](OC(=O)C=C(C)C)[C@@H]24
T/C (dose: 0.18 mg/kg/injection, schedule: Q01DX009 (ip), vehicle: distilled water + Tween-80): 104 % of control
T/C (dose: 0.37 mg/kg/injection, schedule: Q01DX009 (ip), vehicle: distilled water + Tween-80): 104 % of control
T/C (dose: 0.75 mg/kg/injection, schedule: Q01DX009 (ip), vehicle: distilled water + Tween-80): 100 % of control
T/C (dose: 1.5 mg/kg/injection, schedule: Q01DX009 (ip), vehicle: distilled water + Tween-80): 98 % of control
T/C (dose: 3.0 mg/kg/injection, schedule: Q01DX009 (ip), vehicle: distilled water + Tween-80): 111 % of control

CC(CC(=O)O)C(C(=O)O)C(=O)O (stereo not drawn)
T/C (dose: 6.25 mg/kg/injection, schedule: Q04DX003 (ip), vehicle: Klucel (hydroxypropylcellulose) (HPC)): 94 % of control
T/C (dose: 6.25 mg/kg/injection, schedule: Q04DX003 (ip), vehicle: water): 107 % of control
T/C (dose: 12.5 mg/kg/injection, schedule: Q01DX009 (ip), vehicle: water): 108 % of control
T/C (dose: 12.5 mg/kg/injection, schedule: Q04DX003 (ip), vehicle: Klucel (hydroxypropylcellulose) (HPC)): 92 % of control
T/C (dose: 12.5 mg/kg/injection, schedule: Q04DX003 (ip), vehicle: water): 95 % of control and 105 % of control
T/C (dose: 25.0 mg/kg/injection, schedule: Q01DX009 (ip), vehicle: water): 107 % of control
T/C (dose: 25.0 mg/kg/injection, schedule: Q04DX003 (ip), vehicle: Klucel (hydroxypropylcellulose) (HPC)): 92 % of control
T/C (dose: 25.0 mg/kg/injection, schedule: Q04DX003 (ip), vehicle: water): 266 % of control and 94 % of control and 110 % of control
T/C (dose: 50.0 mg/kg/injection, schedule: Q04DX003 (ip), vehicle: Klucel (hydroxypropylcellulose) (HPC)): 90 % of control
T/C [3]: 266 % of control and 95 % of control and 117 % of control
T/C (dose: 100.0 mg/kg/injection, schedule: Q01DX009 (ip), vehicle: water): 100 % of control
T/C [1]: 91 % of control
T/C (dose: 100.0 mg/kg/injection, schedule: Q04DX003 (ip), vehicle: water): 86 % of control and 95 % of control and 100 % of control
T/C (dose: 200.0 mg/kg/injection, schedule: Q01DX009 (ip), vehicle: water): 91 % of control
T/C [2]: 90 % of control
T/C [4]: 101 % of control and 111 % of control
T/C (dose: 400.0 mg/kg/injection, schedule: Q01DX009 (ip), vehicle: water): 91 % of control

CC(C(N)C(=O)O)C(O)c1ccc(O)cn1 (stereo not drawn)
T/C (dose: 45.0 mg/kg/injection, schedule: Q01DX009 (ip), vehicle: water): 109 % of control
T/C (dose: 90.0 mg/kg/injection, schedule: Q01DX009 (ip), vehicle: water): 102 % of control
T/C (dose: 180.0 mg/kg/injection, schedule: Q01DX009 (ip), vehicle: water): 102 % of control
